Reference: ChEMBL document CHEMBL4311957, “Recent advances in natural antifungal flavonoids and their derivatives” (Bioorg Med Chem Lett, 2019)
Values after ≈ are worked out from the molar mass of the structure shown.

What was measured:
Type in all cases: functional
[1] = Fungicidal activity against FLC-resistant Candida arborea KKP 319
[2] = system: Candida dubliniensis; test: Antifungal activity against FLC-resistant Candida dubliniensis CBS 7987
[3] = Antifungal activity against FLC-resistant Candida arborea KKP 319
[4] = system: Candida albicans; test: Fungicidal activity against FLC-resistant Candida albicans ATCC 10231
[5] = system: Kluyveromyces marxianus; test: Antifungal activity against FLC-resistant Candida pseudotropicalis KKP 324
[6] = system: Nakaseomyces glabratus; test: Antifungal activity against FLC-resistant Candida glabrata DSM 11226
[7] = system: Nakaseomyces glabratus; test: Fungicidal activity against FLC-resistant Candida glabrata DSM 11226
[8] = system: Candida tropicalis; test: Antifungal activity against FLC-resistant Candida tropicalis KKP 334
[9] = system: Candida albicans; test: Antifungal activity against FLC-resistant Candida albicans ATCC 10231
[10] = system: Candida albicans; test: Fungicidal activity against FLC-resistant Candida stellatoidea CBS 1905
[11] = system: Meyerozyma guilliermondii; test: Antifungal activity against FLC-resistant Candida guilliermondii DSM 11947
[12] = system: Clavispora lusitaniae; test: Antifungal activity against FLC-resistant Candida lusitaniae DSM 70102
[13] = system: Candida parapsilosis; test: Antifungal activity against FLC-resistant Candida parapsilosis DSM 5784; conditions: Lodderomyces parapsilosis
[14] = system: Pichia kudriavzevii; test: Fungicidal activity against FLC-resistant Candida krusei DSM 6128
[15] = system: Pichia kudriavzevii; test: Antifungal activity against FLC-resistant Candida krusei DSM 6128
[16] = system: Candida tropicalis; test: Fungicidal activity against FLC-resistant Candida tropicalis KKP 334
[17] = system: Candida dubliniensis; test: Fungicidal activity against FLC-resistant Candida dubliniensis CBS 7987
[18] = system: Yarrowia lipolytica; test: Fungicidal activity against FLC-resistant Candida lipolytica KKP 332
[19] = system: Clavispora lusitaniae; test: Fungicidal activity against FLC-resistant Candida lusitaniae DSM 70102
[20] = system: Yarrowia lipolytica; test: Antifungal activity against FLC-resistant Candida lipolytica KKP 332
[21] = system: Meyerozyma guilliermondii; test: Fungicidal activity against FLC-resistant Candida guilliermondii DSM 11947
[22] = system: Candida parapsilosis; test: Fungicidal activity against FLC-resistant Candida parapsilosis DSM 5784; conditions: Lodderomyces parapsilosis
[23] = system: Candida albicans; test: Antifungal activity against FLC-resistant Candida stellatoidea CBS 1905
[24] = system: Kluyveromyces marxianus; test: Fungicidal activity against FLC-resistant Candida pseudotropicalis KKP 324
[25] = system: Trichophyton mentagrophytes; test: Antifungal activity against Trichophyton mentagrophytes after 72 to 120 hrs
[26] = system: Candida albicans; test: Antifungal activity against Candida albicans ATCC 24433 after 24 hrs; conditions: ATCC 24433, 24 h
[27] = system: Candida albicans; test: Antifungal activity against Candida albicans ATCC 44859 after 24 to 48 hrs
[28] = system: Nakaseomyces glabratus; test: Antifungal activity against Candida glabrata ATCC 90030 after 24 hrs; conditions: ATCC 90030, 24 h
[29] = system: Candida parapsilosis; test: Antifungal activity against Candida parapsilosis ATCC 22019 after 24 hrs; conditions: Lodderomyces parapsilosis, ATCC 22019, 24 h
[30] = system: Aspergillus fumigatus; test: Antifungal activity against Aspergillus fumigatus after 24 to 48 hrs
[31] = system: Pichia kudriavzevii; test: Antifungal activity against Candida krusei ATCC 6258 after 24 hrs; conditions: ATCC 6258, 24 h
[32] = system: Pichia kudriavzevii; test: Antifungal activity against Candida krusei E 28 after 24 to 48 hrs
[33] = system: Nakaseomyces glabratus; test: Antifungal activity against Candida glabrata 20/I after 24 to 48 hrs
[34] = system: Candida tropicalis; test: Antifungal activity against Candida tropicalis 156 after 24 to 48 hrs
[35] = system: Candida albicans; test: Antifungal activity against Candida albicans after 24 hrs by broth dilution method
[36] = system: Aspergillus fumigatus; test: Antifungal activity against Aspergillus fumigatus after 24 hrs by broth dilution method
[37] = system: Trichophyton mentagrophytes; test: Fungicidal activity against Trichophyton mentagrophytes after 24 hrs by broth dilution method
[38] = system: Aspergillus fumigatus; test: Fungicidal activity against Aspergillus fumigatus after 24 hrs by broth dilution method
[39] = system: Trichophyton mentagrophytes; test: Antifungal activity against Trichophyton mentagrophytes after 24 hrs by broth dilution method

For `COc1ccc2oc(=O)sc2c1C(=O)/C=C/c1ccc(OCCN(C)C)cc1`, which MIC [1] is on record?
Its MIC is 8 to 32 µg/mL (≈ 20 to 80.1 µM).

What about the MIC [2] of the same molecule?
The MIC was 1 to 16 µg/mL (≈ 2.5 to 40.1 µM).

And the MIC [3]?
The MIC was 1 to 16 µg/mL (≈ 2.5 to 40.1 µM).

What about the MIC [4] of the same molecule?
The MIC was 8 to 32 µg/mL (≈ 20 to 80.1 µM).

And the MIC [5]?
Its MIC is 1 to 16 µg/mL (≈ 2.5 to 40.1 µM).

What about the MIC [6] of the same molecule?
Its MIC is 1 to 16 µg/mL (≈ 2.5 to 40.1 µM).

What about the MIC [7] of the same molecule?
The MIC was 8 to 32 µg/mL (≈ 20 to 80.1 µM).

And the MIC [8]?
Its MIC is 1 to 16 µg/mL (≈ 2.5 to 40.1 µM).

And the MIC [9]?
The MIC was 1 to 16 µg/mL (≈ 2.5 to 40.1 µM).

What about the MIC [10] of the same molecule?
Its MIC is 8 to 32 µg/mL (≈ 20 to 80.1 µM).

And the MIC [11]?
Its MIC is 1 to 16 µg/mL (≈ 2.5 to 40.1 µM).

And the MIC [12]?
Its MIC is 1 to 16 µg/mL (≈ 2.5 to 40.1 µM).

What about the MIC [13] of the same molecule?
The MIC was 1 to 16 µg/mL (≈ 2.5 to 40.1 µM).

What about the MIC [14] of the same molecule?
Its MIC is 8 to 32 µg/mL (≈ 20 to 80.1 µM).

What about the MIC [15] of the same molecule?
The MIC was 1 to 16 µg/mL (≈ 2.5 to 40.1 µM).

And the MIC [16]?
The MIC was 8 to 32 µg/mL (≈ 20 to 80.1 µM).

And the MIC [17]?
Its MIC is 8 to 32 µg/mL (≈ 20 to 80.1 µM).

What about the MIC [18] of the same molecule?
Its MIC is 8 to 32 µg/mL (≈ 20 to 80.1 µM).

And the MIC [19]?
Its MIC is 8 to 32 µg/mL (≈ 20 to 80.1 µM).

What about the MIC [20] of the same molecule?
Its MIC is 1 to 16 µg/mL (≈ 2.5 to 40.1 µM).

What about the MIC [21] of the same molecule?
The MIC was 8 to 32 µg/mL (≈ 20 to 80.1 µM).

And the MIC [22]?
The MIC was 8 to 32 µg/mL (≈ 20 to 80.1 µM).

What about the MIC [23] of the same molecule?
Its MIC is 1 to 16 µg/mL (≈ 2.5 to 40.1 µM).

And the MIC [24]?
The MIC was 8 to 32 µg/mL (≈ 20 to 80.1 µM).

With `O=C(/C=C/c1ccccc1[N+](=O)[O-])c1cnccn1` as the molecule, how does the MIC [25] read?
Its MIC is 6.51 to 31.2 µg/mL (≈ 25.5 to 122 µM).

What about the MIC [26] of the same molecule?
Its MIC is 0.78 to 3.12 µg/mL (≈ 3.06 to 12.2 µM).

And the MIC [27]?
The MIC was 7.81 µg/mL (≈ 30.6 µM).

And the MIC [28]?
Its MIC is 0.78 to 3.12 µg/mL (≈ 3.06 to 12.2 µM).

And the MIC [29]?
Its MIC is 0.78 to 3.12 µg/mL (≈ 3.06 to 12.2 µM).

What about the MIC [30] of the same molecule?
The MIC was 7.81 to 500 µg/mL (≈ 30.6 to 1960 µM).

What about the MIC [31] of the same molecule?
Its MIC is 0.78 to 3.12 µg/mL (≈ 3.06 to 12.2 µM).

And the MIC [32]?
Its MIC is 7.81 to 125 µg/mL (≈ 30.6 to 490 µM).

And the MIC [33]?
Its MIC is 7.81 to 41.6 µg/mL (≈ 30.6 to 163 µM).

What about the MIC [34] of the same molecule?
Its MIC is 7.81 to 500 µg/mL (≈ 30.6 to 1960 µM).

With `Cc1cc(O)c(C(=O)/C=C/c2coc3ccccc3c2=O)c(=O)o1` as the molecule, how does the MIC [35] read?
The MIC was 12.5 µg/mL (≈ 38.5 µM).

And the MFC [36]?
The MFC was 50 µg/mL (≈ 154 µM).

For `O=C1NC(=O)C(C(=O)/C=C/c2coc3ccccc3c2=O)C(=O)N1`, which MFC [37] is on record?
Its MFC is 50 µg/mL (≈ 153 µM).

What about the MFC [38] of the same molecule?
The MFC was 50 µg/mL (≈ 153 µM).

What about the MIC [39] of the same molecule?
The MIC was 12.5 µg/mL (≈ 38.3 µM).

What about the MIC [35] of the same molecule?
Its MIC is 12.5 µg/mL (≈ 38.3 µM).
